Columns and labels:
CXCR4 receptor = CXCR4 receptor (Homo sapiens, UniProt P61073); experiment: binding of radiolabeled SDF-1α to the CXCR4 receptor; details: 10 μM
Method: Alternative mechanisms might also be responsible for the observed immune inducing effects of PBT. The FDA-approved compound, plerixafor (also known as AMD3100), is used as a hematopoietic stem cell mobilizer for use in combination with granulocyte-colony stimulating factor (G-CSF) for peripheral blood collection and subsequent autologous transplantation in patients with non-Hodgkin's lymphoma and multiple myeloma. […] We tested the effect of 10 μM AMXT 1501 on the binding of radiolabeled SDF-1α to the CXCR4 receptor and found no inhibition. […] Since an interaction between AMXT 1501 and the CXCR4 receptor was not observed, a polyamine-dependant mechanism of immune-suppression is maintained.

human TLR3 = biological target: T1, human TLR3 (Homo sapiens, UniProt O15455); experiment: Toll-Like Receptor (TLR) screening assay, TLR3; assay type: cell-based; details: 10 μM
T1 sequence (O15455 24-904): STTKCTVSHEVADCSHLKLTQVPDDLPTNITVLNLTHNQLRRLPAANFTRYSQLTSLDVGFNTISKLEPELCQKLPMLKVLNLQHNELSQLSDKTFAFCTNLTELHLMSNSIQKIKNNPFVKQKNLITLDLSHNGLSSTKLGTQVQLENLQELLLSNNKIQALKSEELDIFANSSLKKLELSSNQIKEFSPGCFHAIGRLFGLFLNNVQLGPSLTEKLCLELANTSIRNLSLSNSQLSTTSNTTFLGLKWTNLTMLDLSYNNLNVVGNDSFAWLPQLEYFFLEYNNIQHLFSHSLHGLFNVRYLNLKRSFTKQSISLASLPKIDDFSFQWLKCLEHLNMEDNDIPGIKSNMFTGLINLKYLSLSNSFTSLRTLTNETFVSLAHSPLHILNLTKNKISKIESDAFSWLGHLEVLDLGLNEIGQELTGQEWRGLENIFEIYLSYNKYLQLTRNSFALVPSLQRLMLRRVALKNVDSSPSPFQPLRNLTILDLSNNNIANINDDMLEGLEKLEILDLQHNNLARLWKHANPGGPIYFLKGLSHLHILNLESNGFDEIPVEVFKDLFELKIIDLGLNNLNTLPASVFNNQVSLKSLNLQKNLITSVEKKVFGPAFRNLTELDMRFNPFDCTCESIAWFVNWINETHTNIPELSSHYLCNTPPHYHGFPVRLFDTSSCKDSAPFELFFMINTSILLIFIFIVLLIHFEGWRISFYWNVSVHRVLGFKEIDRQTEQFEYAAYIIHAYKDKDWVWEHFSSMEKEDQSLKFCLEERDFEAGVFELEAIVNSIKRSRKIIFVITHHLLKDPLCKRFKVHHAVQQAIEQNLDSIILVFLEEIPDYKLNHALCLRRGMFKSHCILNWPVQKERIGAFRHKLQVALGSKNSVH

human TLR9 = biological target: T2, human TLR9 (Homo sapiens, UniProt Q9NR96); experiment: Toll-Like Receptor (TLR) screening assay, TLR9; assay type: cell-based; details: 10 μM
T2 sequence (Q9NR96 26-1032): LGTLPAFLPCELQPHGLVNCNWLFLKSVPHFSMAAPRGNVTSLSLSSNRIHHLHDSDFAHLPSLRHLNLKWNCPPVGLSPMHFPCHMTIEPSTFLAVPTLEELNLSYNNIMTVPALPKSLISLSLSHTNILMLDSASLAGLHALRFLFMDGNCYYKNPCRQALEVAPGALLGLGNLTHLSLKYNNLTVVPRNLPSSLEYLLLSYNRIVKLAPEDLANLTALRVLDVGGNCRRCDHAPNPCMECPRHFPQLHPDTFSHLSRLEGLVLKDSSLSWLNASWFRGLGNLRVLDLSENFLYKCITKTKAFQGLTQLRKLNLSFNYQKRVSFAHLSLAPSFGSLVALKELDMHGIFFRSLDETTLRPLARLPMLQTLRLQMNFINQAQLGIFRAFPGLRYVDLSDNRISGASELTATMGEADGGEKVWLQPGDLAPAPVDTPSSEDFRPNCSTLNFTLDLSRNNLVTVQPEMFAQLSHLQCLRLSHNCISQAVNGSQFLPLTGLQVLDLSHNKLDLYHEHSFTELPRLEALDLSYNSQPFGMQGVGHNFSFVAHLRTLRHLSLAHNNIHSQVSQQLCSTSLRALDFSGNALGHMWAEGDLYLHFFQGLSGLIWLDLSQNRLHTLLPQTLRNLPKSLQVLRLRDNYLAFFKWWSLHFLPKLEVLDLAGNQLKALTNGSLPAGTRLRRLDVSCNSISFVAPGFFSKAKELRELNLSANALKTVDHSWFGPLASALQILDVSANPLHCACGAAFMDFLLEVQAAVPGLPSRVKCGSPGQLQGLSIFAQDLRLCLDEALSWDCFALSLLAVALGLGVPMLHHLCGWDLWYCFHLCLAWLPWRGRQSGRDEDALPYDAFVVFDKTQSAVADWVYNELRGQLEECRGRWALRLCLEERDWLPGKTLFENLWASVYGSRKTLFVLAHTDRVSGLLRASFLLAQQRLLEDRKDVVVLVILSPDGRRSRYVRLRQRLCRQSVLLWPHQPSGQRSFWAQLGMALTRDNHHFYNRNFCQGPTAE

human TLR 2 = human TLR 2 (Homo sapiens, UniProt O60603); experiment: Toll-Like Receptor (TLR) screening assay, TLR2; assay type: cell-based; details: 10 μM; control HKLM
human TLR 2, sequence (O60603 21-784): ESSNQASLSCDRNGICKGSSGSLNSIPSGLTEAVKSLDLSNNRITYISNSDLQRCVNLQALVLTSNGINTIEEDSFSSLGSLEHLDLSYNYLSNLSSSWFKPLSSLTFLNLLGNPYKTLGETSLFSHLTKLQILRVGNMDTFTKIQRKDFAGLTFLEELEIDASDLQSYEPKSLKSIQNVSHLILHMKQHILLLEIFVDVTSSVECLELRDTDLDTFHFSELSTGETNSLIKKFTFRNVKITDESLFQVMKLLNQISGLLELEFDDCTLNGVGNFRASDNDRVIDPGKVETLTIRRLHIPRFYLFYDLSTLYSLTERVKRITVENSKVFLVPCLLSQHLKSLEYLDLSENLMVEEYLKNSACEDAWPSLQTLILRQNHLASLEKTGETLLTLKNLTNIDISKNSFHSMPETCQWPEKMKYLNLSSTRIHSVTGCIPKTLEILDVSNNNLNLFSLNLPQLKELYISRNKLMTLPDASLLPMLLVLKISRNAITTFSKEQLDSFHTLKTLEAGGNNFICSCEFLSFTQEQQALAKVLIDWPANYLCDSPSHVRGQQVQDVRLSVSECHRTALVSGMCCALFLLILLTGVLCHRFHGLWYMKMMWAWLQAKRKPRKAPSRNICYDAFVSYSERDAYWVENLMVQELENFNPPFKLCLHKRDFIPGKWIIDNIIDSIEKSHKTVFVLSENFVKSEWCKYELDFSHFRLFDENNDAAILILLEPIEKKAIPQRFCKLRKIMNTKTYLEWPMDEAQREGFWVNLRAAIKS

CXCR4 receptor, sequence (P61073 whole entry): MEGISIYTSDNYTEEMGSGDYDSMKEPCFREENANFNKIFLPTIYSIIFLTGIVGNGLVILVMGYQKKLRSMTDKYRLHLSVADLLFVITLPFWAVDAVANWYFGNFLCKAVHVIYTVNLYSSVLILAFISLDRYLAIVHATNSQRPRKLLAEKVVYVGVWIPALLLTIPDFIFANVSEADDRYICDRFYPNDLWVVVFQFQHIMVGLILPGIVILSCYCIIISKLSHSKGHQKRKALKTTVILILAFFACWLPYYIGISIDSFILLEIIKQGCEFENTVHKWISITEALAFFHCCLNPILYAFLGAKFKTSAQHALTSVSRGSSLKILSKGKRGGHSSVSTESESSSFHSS

## CCCCCCCCCCCCCCCC(=O)NCCCC[C@@H](N)C(=O)NCCCNCCCCNCCCN [AMXT 1501, D-Lys(C16acyl)-Spm]
CXCR4 receptor
  inhibition of radiolabeled SDF-1α binding: no inhibition
Human TLR3
  activity on TLR3: no significant activity
Human TLR9
  activity on TLR9: no significant activity
Human TLR 2
  stimulatory effect on TLR2: 19 % of control

From patent US20150050299A1, “METHODS FOR ENHANCING IMMUNE RESPONSE” (priority 2010, published 2015)
